Source: patent US7799757B2, “Analogs of parathyroid hormone and PTH-related protein as bone anabolic agents” (priority 2002, dated 2010)
Non-standard residues stand in square brackets, D forms with d. Residues, ends and D or L forms follow the SMILES beside them. No end group written: not given here. 2Thi = N[C@@H](Cc1cccs1)C(=O)O

What was measured:
renal PTH receptors = conditions: background, literature report; cited from earlier work
[1] = system: PTH-stimulated adenylate cyclase; conditions: background, literature report; cited from earlier work
SaOS-2/B10 cells = format: binding; conditions: 2 h
Protocol: SaOS-2/B10 cells were maintained in RPMI1640 medium supplemented with 10% fetal bovine serum (FBS) and 2 mM glutamine at 37° C. in a humidified atmosphere of 5% CO2 in air. The medium was changed every three to four days, and the cells were subcultured every week by trypsinization.
SaOS-2/B10 cells were maintained for four days after they had reached confluence. The medium was replaced with 5% FBS […] medium and incubated for 2 hrs at room temperature with 10×10^4 cpm mono-^125I-[Nle^8,18,Tyr^34(3-^125I)]bPTH(1-34)NH2 in the presence or absence of a competing tested polypeptide of the invention. The cells were washed four times with ice-cold PBS and lysed with 0.1M NaOH, and the radioactivity associated with the cells was counted in a scintillation counter. Synthesis of the radiolabelled [Nle^8,18,Tyr^34(3-^125I)]bPTH(1-34)NH2 was carried out as described in Goldman M. E., et al., Endocrinology, (1988), 123, 1468-1475.
The binding assay was conducted on the polypeptides of the invention having SEQ ID NO:5, 6, 7, 9, 10, 11, and 12.

[2] = system: adenylate cyclase in SaOS-2/B10 cells; assay: Stimulation of adenylate cyclase activity in SaOS-2/B10 cells; format: cell-based; conditions: 1 mM IBMX, 5 min incubation, read-out: EC50 (half maximal stimulation of adenylate cyclase)
Protocol: The adenylate cyclase activity induced by each of the tested polypeptides of the invention was also measured in SaOS-2/B 10 cells as described previously (Rodain et al., J. Clin. Invest. (1983) 72,1511; Goldman, et al., Endocrinology (1988) 123, 1468). Conflúnt SaOS-2/B10 cells in 24 wells plates were incubated with 0.5 μCi [^3H]adenine (26.9 Ci/mmol, New England Nuclear, Boston, Mass. in fresh medium at 37° C. for 2 hrs. and washed twice with Hank's solution. The cells were treated with 1 mM IBMX (isobutylmethylxanthine, Sigma, St. Louis, Mo.) in fresh medium for 15 min. and a tested PTH analog was added to the medium to incubate for 5 min. The reaction was stopped by the addition of 1.2M TCA followed by sample neutralization with 4N KOH. Cyclic AMP was isolated by the two-column chromatographic method (Salomon, et al., Anal. Biochem. (1974) 58, 541). The radioactivity was counted in a scintillation counter (Liquid scintillation counter 2200CA, PACKARD, Downers Grove, Ill.).

| Compound | receptor binding / affinity for renal PTH receptors (renal PTH receptors) | agonist activity [1] | IC50 (SaOS-2/B10 cells) | EC50 [2] | activity of carboxyl-terminally truncated PTH [1] |
| --- | --- | --- | --- | --- | --- |
| [Tyr^34]bPTH(7-34)NH2 | moderate affinity | does not have any agonist activity |  |  |  |
| PTH(25-34) (RKKLQDVHNF; Parathyroid hormone; UniProt P01270 56-65, looked up, fragment) [PTH fragment of residues 25-34] | weak receptor binding activity |  |  |  |  |
| AVSEHQLLHDKGKSIQDLRRRELLEKLLELLHTA-NH2 [SEQ ID NO: 10, [Glu^22,25,29,Leu^23,28,30,31,Lys^26]hPTHrP(1–34)NH2] |  |  | 70 nM | 5 nM |  |
| CC[C@H](C)[C@H](NC(=O)[C@H](CO)NC(=O)[C@H](CCCCN)NC(=O)CNC(=O)[C@H](CCCCN)NC(=O)[C@H](CC(=O)O)NC(=O)[C@H](Cc1c[nH]cn1)NC(=O)[C@H](CC(C)C)NC(=O)[C@H](CC(C)C)NC(=O)[C@H](CCC(N)=O)NC(=O)[C@H](Cc1c[nH]cn1)NC(=O)[C@H](CCC(=O)O)NC(=O)[C@H](CO)NC(=O)[C@@H](NC(=O)[C@H](C)N)C(C)C)C(=O)N[C@@H](CCC(N)=O)C(=O)N[C@@H](CC(=O)O)C(=O)N[C@@H](CC(C)C)C(=O)N[C@@H](CCCNC(=N)N)C(=O)N[C@@H](CCCNC(=N)N)C(=O)N[C@@H](CCCNC(=N)N)C(=O)N[C@@H](CCC(=O)O)C(=O)N[C@@H](CC(C)C)C(=O)N[C@@H](CC(C)C)C(=O)N[C@@H](CCC(=O)O)C(=O)N[C@@H](CCCCN)C(=O)N[C@@H](CC(C)C)C(=O)N[C@@H](CC(C)C)C(=O)N[C@@H](CCC(=O)O)C(=O)N[C@@H](CCCCN)C(=O)N[C@@H](CC(C)C)C(=O)N[C@@H](Cc1cccs1)C(=O)N[C@H](C(=O)N[C@@H](C)C(N)=O)[C@@H](C)O [SEQ ID NO: 9, [Glu^22,25,29,Leu^23,28,31,Lys^26,30,Thi^32]hPTHrP(1–34)NH2] (H-AVSEHQLLHDKGKSIQDLRRRELLEKLLEKL[2Thi]TA-NH2; N-terminus assumed) |  |  | 90 nM | 10 nM |  |
| SVSEIQLMHNLGKHLNSMERVELLEKLLEKLHNF-NH2 [SEQ ID NO: 5, [Glu^25,29,Leu^23,27,31,Lys^30]hPTH(1–34)NH2] |  |  | 216 nM | 24 nM |  |
| SVSEIQLMHNLGKHLNSMERVELLRKLLQDLHNF-NH2 [SEQ ID NO: 7, [Leu^23,27,31]hPTH(1–34)NH2] |  |  | 41 nM | 1.12 nM |  |
| AVSEHQLLHDKGKSIQDLRRREFLEKLIEKIHTA-NH2 [SEQ ID NO: 12, [Glu^22,25,29,Lys^26,30]hPTHrP(1–34)NH2] |  |  | 5.5 nM | 0.42 nM |  |
| PTH(1 -25) (SVSEIQLMHNLGKHLNSMERVEWLR; Parathyroid hormone; UniProt P01270 32-56, looked up, fragment) [carboxyl-terminally truncated PTH fragment of residues 1-25] |  |  |  |  | essentially inactive |
| AVSEHQLLHDKGKSIQDLRRRFLLHHLLAELHTA-NH2 [SEQ ID NO: 11, [Leu^23,28,31]hPTHrP(1–34)NH2] |  |  | 18.3 nM | 0.74 nM |  |
| SVSEIQLMHNLGKHLNSMERVEWLEKKLEKVHNF-NH2 [SEQ ID NO: 6, [Glu^25,29,Lys^30]hPTH(1–34)NH2] |  |  | 30 nM | 25.5 nM |  |
